Results on 16 compounds are retold here after PubChem BioAssay (NCI).

What all share (assay): inhibition of tumour cell growth, NCI panel, 48 h
Assay [1] relates to 786-0 renal.
The test system of assay [2] is CCRF-CEM leukemia.
For assay [3], the system named is HOP-62 NSCLC.
For assay [4], the system named is OVCAR-4 ovarian.
In assay [5] the test system is OVCAR-8 ovarian.
Assay [6] has as its system SF-268 CNS.
In assay [7] the test system is SK-MEL-2 melanoma.
Assay [8] concerns SK-MEL-5 melanoma.
Assay [9] has as its system SK-OV-3 ovarian.
For assay [10], the system named is SNB-19 CNS.
In assay [11] the test system is TK-10 renal.
Assay [12] deals with HCC-2998 colon.
Assay [13] has as its system HOP-92 NSCLC.
The test system of assay [14] is MCF7 breast.
Assay [15] relates to SF-539 CNS.

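The compound was tested at five concentrations on cells cultured in 96-well plates, with a 48-hour exposure period. TGI marks complete inhibition of growth.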

As to `OC12c3ccccc3C1CCCCC2N1CCCC1` (stereo not given), the TGI in assay [1], in assay [2], in assay [3], in assay [4], in assay [5] and in assay [6] was > 100 µM each time. Also, the TGI in assay [7], in assay [8], in assay [9], in [10] and in assay [11] was > 100 µM in each case.

For `CC(C)CC(NC(=O)C(C)(CI)Cc1ccccc1)C(=O)Nc1ccccc1` (stereo not given), the TGI in assay [1], in assay [2], in assay [12], in assay [13], in [14] and in [4] was > 100 µM throughout. Besides, the TGI in assay [5], in assay [15], in assay [7], in assay [8], in [9] and in [10] was > 100 µM throughout. In addition, in assay [11], the TGI is > 100 µM.

With `CC1CC(N)=C(C#N)C1(C#N)C#N` (stereo not given), the TGI in assay [1], in [12], in assay [13], in [14], in assay [5] and in assay [6] was > 100 µM each time. Moreover, the TGI in assay [15], in [7], in assay [9], in [10] and in [11] was > 100 µM each time.

`COC(=O)CCC(=O)c1ccc2c(c1)CCC2`: the TGI in [1], in assay [2], in assay [12], in assay [3], in assay [13] and in assay [14] was > 100 µM in each case. The TGI in [4], in assay [5], in assay [6], in [15], in [7] and in assay [8] was > 100 µM each time. In addition, the TGI in [9], in assay [10] and in assay [11] was > 100 µM each time.

`CC(C)(O)C(O)COc1c2c(cc3oc(=O)ccc13)OCO2` (stereo not given): the TGI in assay [1], in [2], in assay [12], in assay [3], in assay [13] and in [4] was > 100 µM throughout. Further, the TGI in assay [5], in assay [6], in [15], in [7], in assay [8] and in [9] was > 100 µM in each case. Besides, the TGI in assay [10] and in assay [11] was > 100 µM in each case.

`COc1ccc(C(c2ccccc2)(c2ccc(OC)cc2)N2C(=O)NC3C(CCCCC(=O)NCCCCCCOP(OCCC#N)N(C(C)C)C(C)C)SCC32)cc1` (stereo not given): the TGI in assay [1] was determined as 35.9 µM; in assay [2], 25.6 µM; in [12], 31.6 µM; in assay [3] it was 36.6 µM; in [13] it was 35 µM; in assay [4] it was 40 µM. Besides, the TGI in [5] was 90.6 µM; in assay [6], 30.6 µM; in [15], 28.1 µM; in [7], 24.9 µM; in assay [8], 31 µM; in assay [11] it was 35.7 µM.

Regarding `COc1cc(/C=C2\C(=O)N(C(=O)Cc3ccccc3)N=C2C)cc(OC)c1OC`, the TGI in assay [1], in assay [2], in assay [12], in assay [3], in assay [4] and in assay [5] was > 100 µM each time. Moreover, the TGI in [6], in [15], in assay [7], in assay [8], in [10] and in assay [11] was > 100 µM each time.

For the compound `Cc1nc2sccn2c1C(=O)NN`, the TGI in assay [1], in assay [2], in assay [12], in assay [3], in assay [13] and in [5] was > 100 µM in each case. In addition, the TGI in [6], in [15], in assay [7], in [8], in assay [9] and in assay [10] was > 100 µM in each case. In assay [11], the TGI is > 100 µM.

On to `COc1ccc(CNc2cnc3cc(N)ccc3n2)cc1`, for which the TGI in assay [1], in assay [2], in [12], in assay [3], in assay [4] and in assay [5] was > 100 µM in each case. The TGI in [6], in assay [15], in [7], in [8], in assay [10] and in assay [11] was > 100 µM each time.

Take `CC1=NN(c2cccc(Cl)c2)C2(SCC(=O)N2c2nc3ccccc3s2)C1=CC=Cc1ccccc1` (stereo not given): the TGI in assay [1] is > 100 µM; in [2] it was > 100 µM; in assay [12], > 100 µM; in assay [3], > 100 µM; in assay [13] it was 45.5 µM; in assay [14], > 100 µM. The TGI was > 100 µM in [4]; > 100 µM in assay [5]; 93.5 µM in [6]; > 100 µM in assay [15]; 59.8 µM in [7]; 47 µM in assay [8]. The TGI in assay [9] is 68.5 µM; in [11] it was > 100 µM.

Take `CCOC(=O)Cc1csc(NC(NC(=O)OCC)(C(=O)OCC)C(F)(F)F)n1` (stereo not given): the TGI in assay [1], in assay [2], in assay [12], in assay [3], in assay [13] and in assay [14] was > 100 µM throughout. Further, the TGI in assay [4], in assay [5], in [6], in [15], in assay [7] and in [8] was > 100 µM each time. Further, the TGI in [9], in [10] and in assay [11] was > 100 µM each time.

Regarding `CSC1=N/C(=C\c2ccc(Cl)cc2)C(=O)N1CN1CCCCC1`, the TGI is > 100 µM in [1]; > 100 µM in assay [2]; > 100 µM in [3]; 82.8 µM in assay [14]; > 100 µM in [5]; > 100 µM in [6]. Further, the TGI in assay [7], in assay [8], in assay [9] and in [11] was > 100 µM in each case.

For the compound `c1csc(-c2nn3c(C45CC6CC(CC(C6)C4)C5)nnc3s2)c1`, the TGI in assay [1], in [2], in [12], in [3], in assay [13] and in assay [4] was > 100 µM in each case. In addition, the TGI in [5], in assay [6], in [15], in assay [7], in assay [8] and in assay [9] was > 100 µM each time. Further, the TGI in assay [10] is > 100 µM.

For `C=C(C)C12CC3CC(/C(=N/O)C(C1)/C3=N\O)[C@@]2(C)O` (stereo not given in full), the TGI in [1], in [2], in assay [12], in [3], in assay [5] and in assay [6] was > 100 µM throughout. Moreover, the TGI in assay [15], in [7], in assay [8], in [9], in assay [10] and in assay [11] was > 100 µM each time.

Turning to `COc1cccc2c1c1ccc3c(c1n2C)C(=O)C=CC3=O`, the TGI in [1] was 31.4 µM; in assay [2], > 100 µM; in assay [12], > 100 µM; in assay [3], > 100 µM; in assay [13], 25.9 µM; in assay [4], 31.8 µM. In addition, the TGI in assay [5] is 29.7 µM; in assay [6], 33.6 µM; in [15] it was 30.9 µM; in assay [7], 33 µM; in assay [8] it was > 100 µM; in assay [9], > 100 µM. The TGI is > 100 µM in assay [10] and 33.3 µM in [11].

Regarding `Cc1c(C)c2ccc(OCC(O)COC(C)C)c(C)c2oc1=O` (stereo not given), the TGI in assay [1] is > 10 µM; in [2], 62.4 µM; in [12], 43.4 µM; in [3], 58.6 µM; in assay [13], > 100 µM; in assay [14] it was 50.1 µM. The TGI is > 10 µM in assay [4]; > 100 µM in assay [5]; > 100 µM in [6]; 36.8 µM in assay [7]; 30.2 µM in assay [8]; > 100 µM in [9]. Further, the TGI in assay [10] was > 100 µM; in [11], 62.3 µM.
